In patent US8802678B2, “Carbonylated (aza) cyclohexanes as dopamine D3 receptor ligands” (Bioprojet, priority 2006, dated 2014):

| melting point | Compound |
| --- | --- |
| 181 °C | Cc1c(N2CCN(CC[C@H]3CC[C@H](NC(=O)CC#N)CC3)CC2)cccc1C(F)(F)F [Example 178, 2-Cyano-N-(4-{2-[4-(2-methyl-3-trifluoromethylphenyl)piperazin-1-yl]ethyl}cyclohexyl)acetamide] |
| 177 to 178 °C | Cc1ccc(Cl)cc1N1CCN(CC[C@H]2CC[C@H](NC(=O)CC(F)(F)F)CC2)CC1 [Example 179, N-(4-{2-[4-(5-Chloro-2-methylphenyl)piperazin-1-yl]ethyl}cyclohexyl)-3,3,3-trifluoropropanamide] |
| 181 to 183 °C | COc1cc(OC)cc(N2CCN(CC[C@H]3CC[C@H](NC(=O)CC#N)CC3)CC2)c1 [Example 180, 2-Cyano-N-(4-{2-[4-(3,5-dimethoxyphenyl)piperazin-1-yl]ethyl}cyclohexyl)acetamide] |
| 181 to 183 °C | N#CCC(=O)N[C@H]1CC[C@H](CCN2CCN(c3cc(F)cc(Cl)c3)CC2)CC1 [Example 181, N-(4-{2-[4-(3-Chloro-5-fluorophenyl)piperazin-1-yl]ethyl}cyclohexyl)-2-cyanoacetamide] |
| 132 °C | CSc1cccc(N2CCN(CC[C@H]3CC[C@H](NC(=O)CC#N)CC3)CC2)c1 [Example 182, 2-Cyano-N-(4-{2-[4-(3-methylsulfanylphenyl)piperazin-1-yl]ethyl}cyclohexyl)acetamide] |
| 174 °C | N#CCC(=O)N[C@H]1CC[C@H](CCN2CCN(c3cccc4ccccc34)CC2)CC1 [Example 183, 2-Cyano-N-{4-[2-(4-naphthalen-1-ylpiperazin-1-yl)ethyl]cyclohexyl}acetamide] |
| 166 °C | N#CCCCC(=O)N[C@H]1CC[C@H](CCN2CCN(c3cc(C(F)(F)F)cc(C(F)(F)F)c3)CC2)CC1 [Example 184, N-(4-{2-[4-(3,5-Bistrifluoromethylphenyl)piperazin-1-yl]ethyl}cyclohexyl)-4-cyanobutanamide] |
| 183 °C | N#CCC(=O)N[C@H]1CC[C@H](CCN2CCN(c3cccc(Cl)c3F)CC2)CC1 [Example 185, N-(4-{2-[4-(3-Chloro-2-fluorophenyl)piperazin-1-yl]ethyl}cyclohexyl)-2-cyanoacetamide] |

The next lines start with the compound.

| Compound | melting point |
| --- | --- |
| N#CCC(=O)N[C@H]1CC[C@H](CCN2CCN(c3cc(Cl)ccc3F)CC2)CC1 [Example 171, N-(4-{2-[4-(5-Chloro-2-fluorophenyl)piperazin-1-yl]ethyl}cyclohexyl)-2-cyanoacetamide] | 200 °C |
| N#CCCCC(=O)N[C@H]1CC[C@H](CCN2CCN(c3cccc(C(F)(F)F)c3F)CC2)CC1 [Example 172, 4-Cyano-N-(4-{2-[4-(2-fluoro-3-trifluoromethylphenyl)piperazin-1-yl]ethyl}cyclohexyl)butanamide] | 158 to 162 °C |
| N#CCC(=O)N[C@H]1CC[C@H](CCN2CCN(c3csc4cc(C(F)(F)F)ccc34)CC2)CC1 [Example 173, 2-Cyano-N-(4-{2-[4-(6-trifluoromethylbenzo[b]thiophen-3-yl)piperazin-1-yl]ethyl}cyclohexyl)acetamide] | 216 °C |
| N#CCC(=O)N[C@H]1CC[C@H](CCN2CCN(c3cc(C(F)(F)F)ccc3F)CC2)CC1 [Example 174, 2-Cyano-N-(4-{2-[4-(2-fluoro-5-trifluoromethylphenyl)piperazin-1-yl]ethyl}cyclohexyl)acetamide] | 197 °C |
| COc1ccc(Cl)cc1N1CCN(CC[C@H]2CC[C@H](NC(=O)CC#N)CC2)CC1 [Example 176, N-(4-{2-[4-(5-Chloro-2-methoxyphenyl)piperazin-1-yl]ethyl}cyclohexyl)-2-cyanoacetamide] | 180 °C |
| CC(C)(C)c1nc(N2CCN(CC[C@H]3CC[C@H](NC(=O)CC#N)CC3)CC2)cc(C(F)(F)F)n1 [Example 177, N-(4-{2-[4-(2-tert-Butyl-6-trifluoromethylpyrimidin-4-yl)piperazin-1-yl]ethyl}cyclohexyl)-2-cyanoacetamide trans/cis 85/15] | 188 °C |
